Experiment: gradient 5% acetonitrile 3 min, to 50% in 2 min, to 85% in 15 min, held 3 min, 100 µL/min
Settings: column: Zorbax Extend-C18 2.1 x 50 mm; eluents: water / acetonitrile, 0.1% formic acid
Outline: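 Mixtures of ~100 pure standards were chromatographed on a Zorbax Extend-C18 column (2.1 × 50 mm, 1.8 μm) at 100 μL/min using water and acetonitrile, each with 0.1% formic acid. Detection used a quadrupole time-of-flight mass spectrometer in positive and negative ionization mode, and data collection spanned 3 months. Retention time was obtained from adduct peaks picked computationally and each checked manually.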

RP-LC retention time | Structure (SMILES)
782 s | O=C(c1ccco1)C(C(c1cccc(Cl)c1)N1CCOCC1)N1CCOCC1 (stereo not given)
781 s | CCS(=O)(=O)Nc1ccc(C2(C(=O)NCC3CCCO3)CCCCC2)cc1 (stereo not given)
834 s | Cc1oc2ccn(Cc3ccc(F)cc3)c(=O)c2c1C(=O)N1CCCCC1
896 s | COc1ccc(NC(=O)CSc2nc3ccccc3o2)c(OC)c1
553 s | CN(C)C[C@@H]1CN(C2CCOCC2)C[C@H]1NS(=O)(=O)Cc1cccc(F)c1
642 s | CCCCNC(=O)C1CCN(c2cc(N3CCCCC3)ncn2)CC1
856 s | COc1ccc(-n2c(=O)c3sccc3n(Cc3nc(-c4ccccc4OC)no3)c2=O)cc1
940 s | Cc1cccc(-n2c(=O)c3c(cc(C)n3C)n(CC(=O)Nc3ccc(F)c(Cl)c3)c2=O)c1
878 s | Cc1ccc(-c2noc(Cn3ncn4nc(-c5cc(C)ccc5C)cc4c3=O)n2)cc1
688 s | COC(=O)CCN1C(=O)c2ccccc2C1=O
864 s | COC(=O)C1=CN(c2ccc(Cl)cc2)c2ccccc2S1(=O)=O
825 s | CCc1onc(C)c1C1CCCN1C(=O)Nc1ccccc1OC (stereo not given)
673 s | O=S(=O)(Nc1cccc(-c2cn3ccccc3n2)c1)c1ccc(Br)cc1
752 s | COc1cccc(C(=O)N2CCC3(CC2)NC(=O)c2ccc(F)cc2N3C)c1
911 s | O=C(c1csc(Nc2ccccc2)n1)N1CCN(c2ccccc2F)CC1
617 s | O=C(CCc1ccc2c(c1)CN(C(=O)C1CC1)CCO2)NC1CCS(=O)(=O)C1 (stereo not given)
780 s | CSc1ccc(CNC(=O)CCc2nnc3c4cc(-c5ccccc5)nn4ccn23)cc1
917 s | Cc1ccc(NC(=O)C(=O)c2ccc[nH]2)cc1F
739 s | CCCSCCCNC(=O)Cn1cnc2nc3c(cc2c1=O)CCCC3
994 s | O=C(Cn1cccc1-c1nc(-c2ccc3c(c2)OCO3)no1)Nc1ccc(F)cc1
659 s | COc1ccc(Cl)cc1NC(=O)NCCn1c(-c2ccncc2)nc2cccnc21
744 s | Cc1cc2nn(CC(=O)NCc3ccc(F)cc3)c(=O)n2c(-c2ccccc2)n1
1010 s | Cn1nnc2ccc(-c3noc(-c4cccc(F)c4)n3)cc21

RP-LC retention time | Structure (SMILES)
952 s | CCOc1ccc(-c2ccc(=O)n(CCc3nc(-c4cccc(OC)c4OC)no3)n2)cc1
962 s | Clc1c(Cl)c(Cl)c2n[nH]nc2c1Cl
608 s | CCOc1ccc(C2=NC3(CCN(C(C)C)CC3)NC(c3cccc(OC)c3O)C2)cc1 (stereo not given)
1110 s | Cc1ccc(CNC(=O)CN2C(=O)CSc3cccn3-c3ccccc32)cc1
961 s | CCCN(CCC)c1nc(-c2ccc(Cl)cc2)nc2ccccc12
836 s | CCC(=O)Nc1nc(-c2ccccc2)cs1
579 s | COCC1CN(Cc2ccc(OC(F)(F)F)cc2)CC12CCNCC2 (stereo not given)
1010 s | CC1Oc2ccc(-c3csc(NC(=O)CCc4ccccc4)n3)cc2N(C)C1=O (stereo not given)
906 s | COC(=O)CC(=O)Nc1ccc(-c2nc(-c3ccccc3)co2)cc1
872 s | O=C1NC2(CCN(C(=O)c3ccc(F)cc3)CC2)N=C1c1ccc(Cl)cc1
572 s | O=C(Cn1ncc2c(N3CCN(c4ccccn4)CC3)ncnc21)Nc1ccc(F)c(F)c1
715 s | COC(=O)c1c(C)[nH]c(C(=O)N2CCC(CC(=O)NCc3cccc(OC)c3)CC2)c1C
672 s | Cc1cccc(S(=O)(=O)N2CCC(CN3CCCCCC3)CC2)c1
768 s | CN(CC(=O)N1CCN(c2ccccc2F)CC1)S(=O)(=O)c1ccc2c(c1)CCCC(=O)N2
1120 s | Cc1cc(C(=O)Nc2nc(-c3ccc(C)c(C)c3)c(C)s2)no1
668 s | CN(C)c1cccc(C(=O)NC2CCN(c3cc(-c4cccs4)[nH]n3)C2)c1 (stereo not given)
1340 s | CC(C)n1c(=O)oc2cc(-c3noc(-c4cccc(Br)c4)n3)ccc21
542 s | Cc1nnc(NC(=O)CSc2nnc(CCc3nc4ccccc4[nH]3)o2)s1
1070 s | CCN1C(=O)C2(CCN(S(=O)(=O)c3cccc(C)c3)CC2)c2ccccc21
863 s | CCS(=O)(=O)Nc1ccc(C2(C(=O)NCc3ccc(C)cc3)CCC2)cc1
1030 s | COC(=O)c1cnc(N2CCN(c3ccccc3OC)CC2)c2ccccc12
701 s | CCCc1noc(-c2cccnc2N2CCCN(Cc3ccccc3F)CC2)n1
1210 s | Cc1nc(-c2ccccc2)sc1C(=O)Nc1nc(-c2ccccc2)c(C)s1

RP-LC retention time | Structure (SMILES)
687 s | CS(=O)(=O)N(C1CCOCC1)C1CN(C(=O)c2cc(F)ccc2F)C1
768 s | CC1CCN(S(=O)(=O)c2ccc3nn(Cc4cccc(C#N)c4)c(=O)n3c2)CC1
706 s | O=C(NCC1(CO)CC1)NC(c1ccccc1)c1ccccc1
952 s | Cn1nc(-c2nc(C3CC3)no2)c2c1CCN(S(=O)(=O)c1ccccc1Cl)C2
956 s | CC1=NS(=O)(=O)N(C)C=C1C(=O)OCc1nc(Cc2ccc(C)cc2)no1
900 s | CCC(C)CC(=O)N1CCCN(C2=NS(=O)(=O)C(c3ccc(C)cc3)=C2C)CC1 (stereo not given)
736 s | COc1ccc(C(=O)N2CCN(c3ccc(-c4nc(C)cs4)cn3)CC2)cc1OC
844 s | CCc1nnc2ccc(-c3noc(Cc4cc(OC)cc(OC)c4)n3)cn12
774 s | O=C(NC1CCCCCC1)c1csc(-c2ccc(N3CCCC3)nc2)n1
656 s | COC[C@@H]1CN(Cc2cn(C)c3ccccc23)C[C@H]1c1nc(C)no1
624 s | O=C(CCC1NC(=O)c2ccccc2NC1=O)NCc1nc(-c2ccccc2)no1 (stereo not given)
878 s | O=C(NCCc1ccc(Cl)cc1)C(=O)c1ccc[nH]1
658 s | CCCCNC(=O)CCC1CCN(c2cc(NCCC)ncn2)CC1
1100 s | COc1cccc(CN2CC(=O)N(Cc3ccc(F)cc3)c3ccccc3S2(=O)=O)c1
740 s | Cc1nn(-c2ccccc2)c(C)c1S(=O)(=O)N1CCC(C(=O)N2CCOCC2)CC1
790 s | COc1ccc(-c2nnc(COc3ccc(NC(=O)c4ccnn4C)cc3)o2)cc1
767 s | O=C(Cc1cccs1)N1CCN(C(=O)c2cc3ccccc3[nH]2)CC1
996 s | CCOC(=O)c1sc(NC(=O)C(C)Oc2ccc(OC)cc2)nc1C (stereo not given)
694 s | O=C(NCc1ccco1)Nc1cccn2c(C3CCC3)nnc12
1050 s | Cc1ccc(NC(=O)C2CCN(S(=O)(=O)c3cc(-c4noc(C5CC5)n4)cs3)CC2)cc1
553 s | CCC(C)(C)C(=O)N1CC(c2nc(-c3ccccc3)no2)C2(CCOCC2)C1 (stereo not given)
826 s | Nc1cc(C2CCN(S(=O)(=O)c3ccc(Cl)cc3)CC2)no1
822 s | CCc1nn2c(CNC(=O)c3ccn(CC)n3)c(-c3ccccc3)nc2s1

RP-LC retention time | Structure (SMILES)
847 s | CS(=O)(=O)N1CC(C(=O)Nc2ccc3c(c2)OCCO3)C2(CCCCC2)C1 (stereo not given)
899 s | COc1ccc(-c2nnc(N3CCC(C(=O)NCc4cc(F)cc(F)c4)CC3)o2)cc1
819 s | CC1CCN(S(=O)(=O)c2ccc3nn(Cc4ccc(Cl)cc4)c(=O)n3c2)CC1
602 s | Cc1ccc(CN2CCC(CNC(=O)C3CCCN(c4cc(=O)n(C)c(=O)n4C)C3)CC2)cc1 (stereo not given)
642 s | O=C(CCC1CCCN(S(=O)(=O)c2ccccc2F)C1)NCCN1CCOCC1 (stereo not given)
1330 s | CCOC(=O)c1c(C)oc2nc(C)nc(NCc3cccc(Cl)c3)c12
770 s | COc1ccc(N2C(=O)c3cc(C)nn3CC2(C)C(=O)NCc2ccc(F)cc2)cc1 (stereo not given)
860 s | O=S(=O)(c1c(F)cccc1F)N1CCC2(CC1)OCCS2
640 s | COc1ccc(S(=O)(=O)N2CCCC(C(N)=O)C2)cc1OC (stereo not given)
712 s | Cn1nccc1C(=O)N1CCC(c2cc(-c3ccc(F)cc3)n[nH]2)CC1
618 s | COCCc1noc(C2Cc3ccccc3N2C(=O)NCc2cccc(OC)c2)n1 (stereo not given)
564 s | CC(=O)Nc1ccc(-n2cnc(C(=O)N3CCC(C(N)=O)CC3)c2)nc1
785 s | CCN1CCCn2cc(S(=O)(=O)NCCCc3ccccc3)cc2C1=O
792 s | Cn1nc(C(=O)NC2CCN(c3cc(-c4ccccc4)[nH]n3)CC2)c2ccccc21
634 s | CNC(=O)C1CCCN(c2nc3ncn(CC(=O)Nc4ccccc4)c(=O)c3s2)C1 (stereo not given)
660 s | Cc1nnc2ccc(N3CCN(C(=O)Cc4cccc5ccccc45)CC3)nn12
632 s | O=C(c1ccccc1OCC1CCCN(C2CCC2)C1)N1CCCCC1 (stereo not given)
721 s | COc1ccc(-c2nc3ccccn3c2Nc2ccccc2C)cc1
611 s | Cc1cc(CN2CCc3nn(Cc4ccccc4)c(=O)n3CC2)n(C)n1
799 s | O=C(NC1CCc2ccccc21)c1nnn(-c2ccc(F)cc2)c1-c1ccncc1 (stereo not given)

Structure (SMILES) | RP-LC retention time
O=C(N1[C@H]2CC[C@@H]1c1cnc(-c3ccc(F)cc3)nc1C2)C1(c2ccccc2)CC1 | 1070 s
